Measurements as given in paper PMC10175918 (Communications Biology, 2023).
Read-outs that look alike come from different tables or passages of the source.

Tests used:
348 GPCRs [1] = target: T1, 348 GPCRs (Homo sapiens, UniProt P49019); assay: TGFα-shedding assay-based GPCR screening with chimeric Gα subunit proteins; format: cell-based; details: 10µM, Favipiravir 100μM
T1 construct: expressed in transfected cells; host or cells: HEK293A

348 GPCRs [2] = target: T2, 348 GPCRs (Homo sapiens, UniProt Q15391); assay: as above; format: cell-based
T2 construct: expressed in transfected cells; host or cells: HEK293A
T2 sequence (Q15391 1-338): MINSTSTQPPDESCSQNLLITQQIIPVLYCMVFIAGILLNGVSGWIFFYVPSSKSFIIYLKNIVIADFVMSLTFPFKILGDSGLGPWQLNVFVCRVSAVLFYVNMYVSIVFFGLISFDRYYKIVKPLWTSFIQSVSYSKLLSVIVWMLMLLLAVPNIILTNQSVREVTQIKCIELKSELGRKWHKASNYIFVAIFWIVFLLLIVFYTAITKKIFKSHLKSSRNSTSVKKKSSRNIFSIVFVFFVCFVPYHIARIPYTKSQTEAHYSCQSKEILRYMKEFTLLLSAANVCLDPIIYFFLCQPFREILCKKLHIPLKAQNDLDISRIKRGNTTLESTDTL

[3] = target: T3, G protein-coupled receptor 17 short (Homo sapiens, UniProt Q13304); assay: cell-based; design: species or system HEK293A; AP-TGFα shedding assay, transfected GPCR plus chimeric Gα mixture, AP release as % of TPA response; details: HEK293-A
T3 construct: gene GPR17; short isoform

[4] = target: T4, G protein-coupled receptor 18 (Homo sapiens, UniProt Q14330); assay: cell-based; design: species or system HEK293A; AP-TGFα shedding assay, transfected GPCR plus chimeric Gα mixture, AP release as % of TPA response; details: HEK293-A
T4 construct: gene GPR18
T4 sequence (Q14330 1-331): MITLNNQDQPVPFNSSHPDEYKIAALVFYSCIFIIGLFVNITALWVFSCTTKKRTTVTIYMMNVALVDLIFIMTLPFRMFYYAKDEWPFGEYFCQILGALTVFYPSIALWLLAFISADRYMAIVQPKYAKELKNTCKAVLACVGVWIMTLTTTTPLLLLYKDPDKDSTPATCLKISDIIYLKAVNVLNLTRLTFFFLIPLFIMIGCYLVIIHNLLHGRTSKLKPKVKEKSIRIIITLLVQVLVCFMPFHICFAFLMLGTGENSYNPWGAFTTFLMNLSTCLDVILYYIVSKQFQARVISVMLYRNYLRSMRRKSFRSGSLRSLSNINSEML

[5] = target: T5, G protein-coupled receptor 68 long (Homo sapiens, UniProt Q15743); assay: cell-based; design: species or system HEK293A; AP-TGFα shedding assay, transfected GPCR plus chimeric Gα mixture, AP release as % of TPA response; details: HEK293-A
T5 construct: gene GPR68; long isoform

adenosine A2a receptor = target: T6, adenosine A2a receptor (Homo sapiens, UniProt P29274); assay: cell-based; design: species or system HEK293A; AP-TGFα shedding assay, transfected GPCR plus chimeric Gα mixture, AP release as % of TPA response; details: HEK293-A
T6 construct: gene ADORA2A

[6] = target: T7, chemerin chemokine-like receptor 1 (Homo sapiens, UniProt Q99788); assay: cell-based; design: species or system HEK293A; AP-TGFα shedding assay, transfected GPCR plus chimeric Gα mixture, AP release as % of TPA response; details: HEK293-A
T7 construct: gene CMKLR1
T7 sequence (Q99788 1-373): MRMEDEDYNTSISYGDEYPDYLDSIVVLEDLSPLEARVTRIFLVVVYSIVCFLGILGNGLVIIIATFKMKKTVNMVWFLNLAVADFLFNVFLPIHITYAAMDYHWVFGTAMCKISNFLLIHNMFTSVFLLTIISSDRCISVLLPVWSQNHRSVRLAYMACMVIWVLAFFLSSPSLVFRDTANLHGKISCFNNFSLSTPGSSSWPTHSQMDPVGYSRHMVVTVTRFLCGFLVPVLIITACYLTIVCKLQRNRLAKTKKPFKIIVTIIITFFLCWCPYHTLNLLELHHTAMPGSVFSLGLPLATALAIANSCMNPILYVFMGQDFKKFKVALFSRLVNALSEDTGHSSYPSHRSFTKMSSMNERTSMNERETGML

[7] = target: T8, purinergic receptor P2Y, G-protein coupled, 13 short (Homo sapiens, UniProt Q9BPV8); assay: cell-based; design: species or system HEK293A; AP-TGFα shedding assay, transfected GPCR plus chimeric Gα mixture, AP release as % of TPA response; details: HEK293-A
T8 construct: gene P2RY13; short
T8 sequence (Q9BPV8 1-354): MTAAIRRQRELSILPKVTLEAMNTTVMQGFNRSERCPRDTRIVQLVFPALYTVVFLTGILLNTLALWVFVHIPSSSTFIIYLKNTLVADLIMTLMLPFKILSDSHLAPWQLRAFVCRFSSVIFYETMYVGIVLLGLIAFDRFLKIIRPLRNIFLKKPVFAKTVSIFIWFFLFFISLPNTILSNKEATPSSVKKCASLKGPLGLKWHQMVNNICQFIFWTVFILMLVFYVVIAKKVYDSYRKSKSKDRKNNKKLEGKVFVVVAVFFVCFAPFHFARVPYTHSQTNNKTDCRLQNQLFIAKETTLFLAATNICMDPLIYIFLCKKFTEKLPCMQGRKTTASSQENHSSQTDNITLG

[8] = target: T9, relaxin/insulin-like family peptide receptor 2 (Homo sapiens, UniProt Q8WXD0); assay: cell-based; design: species or system HEK293A; AP-TGFα shedding assay, transfected GPCR plus chimeric Gα mixture, AP release as % of TPA response; details: HEK293-A
T9 construct: gene RXFP2

[9] = target: T10, relaxin/insulin-like family peptide receptor 4 (Homo sapiens, UniProt Q8TDU9); assay: cell-based; design: species or system HEK293A; AP-TGFα shedding assay, transfected GPCR plus chimeric Gα mixture, AP release as % of TPA response; details: HEK293-A
T10 construct: gene RXFP4

[10] = HCA3 (hydroxycarboxylic Acid Receptor 3), read-out: % GPCR activation compared to TPA
[11] = GPCR P2Y14 (purinergic receptor P2Y, G-protein coupled, 14), read-out: % GPCR activation compared to TPA
[12] = read-out: % GPCR activation of 10μM GS441524 compared to TPA
[13] = read-out: % GPCR activation compared to TPA, HCA3 (hydroxycarboxylic Acid Receptor 3)
[14] = read-out: % GPCR activation compared to TPA, GPCR P2Y14 (purinergic receptor P2Y, G-protein coupled, 14)
[15] = read-out: % GPCR activation of 10μM Sofosbuvir compared to TPA
[16] = read-out: % GPCR activation of 10µM Remdesivir compared to TPA
[17] = read-out: % GPCR activation of 10µM Molnupiravir compared to TPA
[18] = read-out: % GPCR activation of 100μM Favipiravir compared to TPA

T3 sequence (Q13304 whole entry, canonical isoform): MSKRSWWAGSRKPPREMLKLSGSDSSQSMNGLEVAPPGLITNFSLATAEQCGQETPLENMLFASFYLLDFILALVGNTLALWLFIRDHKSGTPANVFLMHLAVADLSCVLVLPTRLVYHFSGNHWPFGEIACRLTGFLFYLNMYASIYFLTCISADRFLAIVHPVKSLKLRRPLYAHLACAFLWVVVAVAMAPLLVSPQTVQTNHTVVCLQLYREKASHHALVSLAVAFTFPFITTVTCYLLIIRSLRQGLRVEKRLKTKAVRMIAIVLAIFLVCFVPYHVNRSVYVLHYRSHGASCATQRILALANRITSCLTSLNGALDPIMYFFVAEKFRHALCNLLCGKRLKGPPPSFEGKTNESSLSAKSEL
T5 sequence (Q15743 whole entry, canonical isoform): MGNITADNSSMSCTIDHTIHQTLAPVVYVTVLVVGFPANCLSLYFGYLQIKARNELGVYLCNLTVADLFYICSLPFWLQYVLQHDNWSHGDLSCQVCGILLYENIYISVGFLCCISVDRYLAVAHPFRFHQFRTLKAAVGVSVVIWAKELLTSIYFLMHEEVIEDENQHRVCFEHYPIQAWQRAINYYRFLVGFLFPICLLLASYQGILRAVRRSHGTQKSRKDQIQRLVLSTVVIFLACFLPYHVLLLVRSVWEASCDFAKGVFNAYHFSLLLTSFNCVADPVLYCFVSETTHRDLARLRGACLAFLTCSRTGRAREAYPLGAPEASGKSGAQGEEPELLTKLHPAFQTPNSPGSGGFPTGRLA
T10 sequence (Q8TDU9 whole entry): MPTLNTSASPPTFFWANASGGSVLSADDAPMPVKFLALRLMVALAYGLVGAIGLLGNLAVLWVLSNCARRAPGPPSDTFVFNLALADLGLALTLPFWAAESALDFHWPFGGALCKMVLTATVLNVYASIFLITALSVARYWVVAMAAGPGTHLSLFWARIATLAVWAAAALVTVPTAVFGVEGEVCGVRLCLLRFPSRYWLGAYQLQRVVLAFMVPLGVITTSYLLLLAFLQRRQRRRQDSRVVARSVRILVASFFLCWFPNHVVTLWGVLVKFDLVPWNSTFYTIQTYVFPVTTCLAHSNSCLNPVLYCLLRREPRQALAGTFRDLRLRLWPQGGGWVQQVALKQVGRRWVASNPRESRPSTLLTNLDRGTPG
T1 sequence (P49019 whole entry): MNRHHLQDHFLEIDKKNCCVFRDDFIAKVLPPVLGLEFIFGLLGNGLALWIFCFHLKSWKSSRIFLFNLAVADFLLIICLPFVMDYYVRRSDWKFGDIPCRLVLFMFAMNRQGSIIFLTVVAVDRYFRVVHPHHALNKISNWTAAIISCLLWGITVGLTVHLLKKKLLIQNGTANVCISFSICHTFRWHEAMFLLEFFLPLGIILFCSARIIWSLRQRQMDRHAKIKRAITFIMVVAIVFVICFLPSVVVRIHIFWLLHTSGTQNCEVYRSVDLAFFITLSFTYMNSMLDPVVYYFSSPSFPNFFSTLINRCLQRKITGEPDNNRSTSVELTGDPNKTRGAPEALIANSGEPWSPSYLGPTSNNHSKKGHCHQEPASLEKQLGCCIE
T9 sequence (Q8WXD0 whole entry): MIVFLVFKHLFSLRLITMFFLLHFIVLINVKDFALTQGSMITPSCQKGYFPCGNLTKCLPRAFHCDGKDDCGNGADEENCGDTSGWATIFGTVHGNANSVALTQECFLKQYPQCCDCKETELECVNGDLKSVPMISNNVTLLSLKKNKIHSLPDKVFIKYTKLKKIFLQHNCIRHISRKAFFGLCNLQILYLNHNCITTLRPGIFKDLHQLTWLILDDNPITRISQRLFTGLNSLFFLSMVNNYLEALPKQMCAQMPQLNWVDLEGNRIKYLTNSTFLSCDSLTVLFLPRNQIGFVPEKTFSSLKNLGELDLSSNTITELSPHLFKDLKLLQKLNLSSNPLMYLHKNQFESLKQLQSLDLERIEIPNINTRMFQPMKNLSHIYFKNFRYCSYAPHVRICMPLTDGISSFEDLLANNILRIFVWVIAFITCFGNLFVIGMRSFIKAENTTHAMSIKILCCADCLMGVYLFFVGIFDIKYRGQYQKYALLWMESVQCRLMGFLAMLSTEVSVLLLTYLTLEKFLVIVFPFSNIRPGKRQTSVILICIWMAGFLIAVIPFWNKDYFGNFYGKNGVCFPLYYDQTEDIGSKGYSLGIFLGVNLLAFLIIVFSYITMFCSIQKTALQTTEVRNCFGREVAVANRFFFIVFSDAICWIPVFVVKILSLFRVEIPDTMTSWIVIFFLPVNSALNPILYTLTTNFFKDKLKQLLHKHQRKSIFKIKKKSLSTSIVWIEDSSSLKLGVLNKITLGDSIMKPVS
T6 sequence (P29274 whole entry): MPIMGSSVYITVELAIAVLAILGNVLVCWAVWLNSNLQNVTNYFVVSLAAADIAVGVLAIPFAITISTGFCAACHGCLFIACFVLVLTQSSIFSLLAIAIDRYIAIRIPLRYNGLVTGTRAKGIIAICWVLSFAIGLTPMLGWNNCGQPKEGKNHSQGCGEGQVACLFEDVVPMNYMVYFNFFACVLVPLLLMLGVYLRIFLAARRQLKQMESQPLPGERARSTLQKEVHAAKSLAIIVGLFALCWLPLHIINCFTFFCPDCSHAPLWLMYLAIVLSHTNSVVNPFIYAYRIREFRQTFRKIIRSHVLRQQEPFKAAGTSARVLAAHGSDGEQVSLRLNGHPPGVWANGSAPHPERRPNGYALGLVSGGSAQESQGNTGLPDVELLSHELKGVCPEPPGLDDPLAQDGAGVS

## N#C[C@@]1(c2ccc3c(N)ncnn23)O[C@H](CO)[C@@H](O)[C@H]1O [GS441524]
348 GPCRs [1]; [10]
  activation at 100 µM: -0.178%
348 GPCRs [2]; [11]
  activation at 10 µM: 4.97%
[3]; [12]
  activity at 10 µM: 2.36%
[4]; [12]
  activity at 10 µM: 2.08%
[5]; [12]
  activity at 10 µM: 3.27%
Adenosine A2a receptor; [12]
  activity at 10 µM: 1.63%
[6]; [12]
  activity at 10 µM: -4.93%
[7]; [12]
  activity at 10 µM: 0.947%
[8]; [12]
  activity at 10 µM: -1.3%
[9]; [12]
  activity at 10 µM: -0.338%

## CC(C)OC(=O)[C@H](C)N[P@](=O)(OC[C@H]1O[C@@H](n2ccc(=O)[nH]c2=O)[C@](C)(F)[C@@H]1O)Oc1ccccc1 [sofosbuvir]
348 GPCRs [1]; [13]
  activation at 100 µM: -2.7%
348 GPCRs [2]; [14]
  activation at 10 µM: 0.966%
[3]; [15]
  activity at 10 µM: 1.81%
[4]; [15]
  activity at 10 µM: -3.04%
[5]; [15]
  activity at 10 µM: -162%
Adenosine A2a receptor; [15]
  activity at 10 µM: -2.15%
[6]; [15]
  activity at 10 µM: -0.939%
[7]; [15]
  activity at 10 µM: -2.68%
[8]; [15]
  activity at 10 µM: -1.51%
[9]; [15]
  activity at 10 µM: -1.57%

## CCC(CC)COC(=O)[C@H](C)N[P@](=O)(OC[C@H]1O[C@@](C#N)(c2ccc3c(N)ncnn23)[C@H](O)[C@@H]1O)Oc1ccccc1 [remdesivir]
348 GPCRs [1]; [13]
  activation at 100 µM: -1.75%
348 GPCRs [2]; [14]
  activation at 10 µM: 8.52%
[3]; [16]
  activity at 10 µM: 2.96%
[4]; [16]
  activity at 10 µM: 1.12%
[5]; [16]
  activity at 10 µM: -2.93%
Adenosine A2a receptor; [16]
  activity at 10 µM: 3.96%
[6]; [16]
  activity at 10 µM: -1.38%
[7]; [16]
  activity at 10 µM: 2.55%
[8]; [16]
  activity at 10 µM: 0.369%
[9]; [16]
  activity at 10 µM: 0.997%

## CC(C)C(=O)OC[C@H]1O[C@@H](n2ccc(NO)nc2=O)[C@H](O)[C@@H]1O [molnupiravir]
348 GPCRs [1]; [10]
  activation at 100 µM: -2.64%
348 GPCRs [2]; [11]
  activation at 10 µM: 0.0147%
[3]; [17]
  activity at 10 µM: 0.174%
[4]; [17]
  activity at 10 µM: -5.39%
[5]; [17]
  activity at 10 µM: -160%
Adenosine A2a receptor; [17]
  activity at 10 µM: -1.95%
[6]; [17]
  activity at 10 µM: -0.313%
[7]; [17]
  activity at 10 µM: -3.48%
[8]; [17]
  activity at 10 µM: -1.68%
[9]; [17]
  activity at 10 µM: -0.46%

## NC(=O)c1nc(F)cnc1O [favipiravir, 6-fluoro-3-hydroxy-2-pyrazinecarboxamide]
348 GPCRs [1]; [10]
  activation at 100 µM: 0.282%
348 GPCRs [2]; GPCR P2Y14 (purinergic receptor P2Y, G-protein coupled, 14), 100μM, read-out: % GPCR activation compared to TPA
  activation at 100 µM: 5.36%
[3]; [18]
  activity at 100 µM: -0.501%
[4]; [18]
  activity at 100 µM: -1%
[5]; [18]
  activity at 100 µM: 5.02%
Adenosine A2a receptor; [18]
  activity at 100 µM: 2.34%
[6]; [18]
  activity at 100 µM: 2.98%
[7]; [18]
  activity at 100 µM: 1.7%
[8]; [18]
  activity at 100 µM: -0.673%
[9]; [18]
  activity at 100 µM: 1.69%
